Where a name gives a salt, the structure may show the parent alone. Read-outs that look alike come from different tables or passages of the source. Blank lines part the entries; values can stand above or below the compound they belong to. Starred links: 1 amine or outer side, 2 acyl side, 3 side chain; linkers in the order of their positions; H or OH if unused. Positions of bridges follow the written chain, without caps; N, C: chain ends. Non-standard residues stand in square brackets, D forms with d. Residues, ends and D or L forms follow the SMILES beside them. Chains are numbered I, II in the order given. Actinocin(9to1) = Cc1c2oc3c(C)ccc(C(=O)[*:1])c3nc-2c(C(=O)[*:2])c(N)c1=O; NMeV = CN[C@H](C(=O)O)C(C)C; Sar = CNCC(=O)O
Key:
HT-29 cells = assay: Presto Blue cell viability, 2D monolayer; conditions: monolayer culture; nine drugs at 0.1-20 μM, 72 hours
Procedure: HT-29 cells were cultured in 2D monolayer for 24 hours. After 24 hours, the nine FDA-approved anticancer drugs were individually added to the cells at concentrations of 0.1, 1, 10, and 20 μM, and the cells were incubated for 72 hours, at which point viability of the cells was quantitated using Presto Blue assay (Life Technologies) according to the manufacturer's protocol. Raw fluorescence values of the treated groups were normalized to the average of the control and graphed in GraphPad Prism.
HT-29 cells were cultured in 2D monolayer for 24 hours. After 24 hours, the nine FDA-approved anticancer drugs were individually added to the cells at concentrations of 0.1, 1, 10, and 20 μM, and the cells were incubated for 72 hours, at which point viability of the cells was quantitated using Presto Blue assay (Life Technologies) according to the manufacturer's protocol. Raw fluorescence values of the treated groups were normalized to the average of the untreated controls and graphed in GraphPad Prism.
HT-29 cells were either grown in the standard 2-dimensional (2D) monolayer culture or in a 3-dimensional (3D) culture system using a novel fibrous scaffold. […] The monolayer cells and the 3D tumoroids were independently treated with increasing concentrations of nine FDA approved anti-cancer drugs. After 72 hours post-treatment a Presto Blue Cell Viability Assay (for monolayer) and CellTiter-Glo Viability Assay (for tumoroids) were used to quantitate the drug-induced cell death. The drug treated viability readings were normalized to the viability readings from untreated control. The percent viability was used to calculate the IC50 values of all the nine drugs in HT-29 cells.

HT-29 tumoroids = assay: CellTiter-Glo viability, tumoroids on 3D fibrous scaffold; conditions: scaffold culture; nine drugs at 0.1-20 μM, 72 hours
Procedure: HT-29 cells were cultured in the 3D fibrous scaffold from day 1 to day 7, at which point the nine FDA-approved anticancer drugs were individually added to the cells at concentrations of 0.1, 1, 10, and 20 μM. The cells were incubated for an additional 72 hours, at which point viability of the cells was quantitated using Celltiter-Glo assay (Promega) according to the manufacturer's protocol. Raw luminescence values of the treated groups were normalized to the average of the untreated controls and graphed in GraphPad Prism.
HT-29 cells were either grown in the standard 2-dimensional (2D) monolayer culture or in a 3-dimensional (3D) culture system using a novel fibrous scaffold. […] The monolayer cells and the 3D tumoroids were independently treated with increasing concentrations of nine FDA approved anti-cancer drugs. After 72 hours post-treatment a Presto Blue Cell Viability Assay (for monolayer) and CellTiter-Glo Viability Assay (for tumoroids) were used to quantitate the drug-induced cell death. The drug treated viability readings were normalized to the viability readings from untreated control.

[1] = tested on: Second generation MCF-7 tumoroids; assay: Cell Titer Glo viability of second generation tumoroids; type: cell-based, human; conditions: 48 hr treatment
Procedure: (§1) MCF-7 and MCF-7/dox were allowed to form tumoroids on scaffold for 6 days following which they were exposed to Actinomycin D for 24 hrs. At the end of 24 hrs the tumoroids were dissociated and processed for either western blotting (A) or real-time RT-PCR (B). Sox2 protein and transcript levels were analyzed and normalized to HPRT (C) Second generation MCF-7 tumoroids were cultured in a 96 well plate for 6 days. Tumoroids were treated with increasing concentrations of Actinomycin D on day 4 in groups of 4 wells. After a 48 hr treatment, cell viability was assayed using Cell Titer Glo(Promega) on day 6. Viability was calculated as a percent of control untreated wells and graphed using Graph Pad Prism software. (D) Tumoroids were treated with Actinomycin D for 48 hr. Following treatment tumoroids were dissociated and cells were co-stained using FITC conjugated CD44 antibody and Alexa Fluor-647 conjugated CD24 antibody. CD44^highCD24^low stem-like populations in MCF7 tumoroids were assessed by flow cytometer. Data was collected using a BD FACS Canto 2 flow cytometer.

MCF-7/dox cells = assay: Presto-blue cell viability, monolayer culture; conditions: for potency in high throughput screening: NCI Oncology set, 4 point log-dose 0.1 to 100 μM, 72 hrs
Procedure: (§4) (B) MCF-7 and MCF-7/dox cells were cultured on or on scaffold for 6 days and then cells were treated with increasing concentration of Doxorubicin. Forty-eight hrs post-treatment, cell viability was analyzed using presto-blue as per manufacturer's instructions. The % cell death was analyzed and the IC50 calculated using Graph Pad Prism. Data are represented as Mean±SEM of three independent experiments performed in triplicates (*p<0.05).
(§5) (A) MCF-7 and (B) MCF-7/dox cells were cultured on monolayer and then treated with increasing concentration of compounds from NCI Approved Oncology Drugs Set VII. Forty-eight hrs post-treatment, cell viability was analyzed using presto-blue as per manufacturer's instructions. The % cell death was analyzed and the IC50 calculated using Graph Pad Prism. Data are represented as Mean of experiments performed in triplicates.
(§6) To conduct a high through put screening for compounds that induce cell death in breast cancer, the FDA-approved Oncology Diversity set was obtained from NCI in 96 well plate format with each well containing 20 μl of 10 mM drug stock. All different cell lines were cultured either in regular 96 wells plate without scaffold (served as monolayer) and with FiSS (scaffold culture) in complete medium. […] Drugs were added in triplicates with varying concentrations. The cells were incubated for 72 hrs in a humidified atmosphere under 5% CO2 at 37° C., then cell viability was measured using Presto-blue (Fisher Scientific). […] MCF-7 ad MCF-7/dox were used in a monolayer in a 96 well plate, and then treated with a NCI Oncology diversity set containing FDA-approved anti-cancer drugs. Each drug was used in a 4 point log-dose from 0.1 to 100 μM. Untreated cells were used as control and the cell death was estimated at the end of 72 hrs post-treatment.

BT474 cells = assay: Presto-blue cell viability, breast cancer cell panel; conditions: read-out: BT474 (IC50); Table 1, validation of hits in breast cancer cell panel
Procedure: (§7) All different cell lines were cultured either in regular 96 wells plate without scaffold (served as monolayer) and with FiSS (scaffold culture) in complete medium. For scaffold culture, 75% medium was carefully removed and replaced with 150 μl of fresh medium every alternate day. After five/six days of scaffold culture, cells were stained with NucBlue (Fisher Scientific) to check if tumoroids had formed. Drugs were added in triplicates with varying concentrations. The cells were incubated for 72 hrs in a humidified atmosphere under 5% CO2 at 37° C., then cell viability was measured using Presto-blue (Fisher Scientific).

MDA-MB-231 cells = assay: as above; conditions: read-out: MDA-MB-231 (IC50); Table 1, validation of hits in breast cancer cell panel
Procedure: as §7

[2] = tested on: CD44highCD24low cells in MCF-7 tumoroids; assay: Flow cytometry of CD44highCD24low stem-like population in tumoroids; type: cell-based, human; conditions: 48 hr treatment, compared to untreated controls
Procedure: as §1
To further investigate the potential of the FiSS for use in cancer drug discovery by characterizing the BCSCs within the tumoroids, MCF-7 cells were seeded onto scaffolds in 6 well plates at 240,000 cells per well. Cells were cultured for 6 days in RPMI media to form primary tumoroids. […]

MCF-7 cells = assay: Presto-blue cell viability, monolayer culture; conditions: for potency in high throughput screening: NCI Oncology set, 4 point log-dose 0.1 to 100 μM, 72 hrs
Procedure: as §4, §5, §6

MCF-7/dox tumoroids = assay: Presto-blue cell viability, tumoroids on FiSS scaffold
Procedure: (§8) (A) MCF-7 and MCF-7/dox cells were cultured on the scaffold for 6 days and then visualized using Nuc-blue. (B) MCF-7 and MCF-7/dox cells were cultured on or on scaffold for 6 days and then cells were treated with increasing concentration of Doxorubicin. Forty-eight hrs post-treatment, cell viability was analyzed using presto-blue as per manufacturer's instructions. The % cell death was analyzed and the IC50 calculated using Graph Pad Prism. Data are represented as Mean±SEM of three independent experiments performed in triplicates (*p<0.05).
(§9) MCF-7 and MCF-7/dox cells were cultured on monolayer or on scaffold in normoxia or hypoxia for 6 days. At the end of culture period, the monolayer cells and tumoroids were treated with increasing concentration of Actinomycin D. Forty-eight hrs post-treatment, cell viability was analyzed using presto-blue as per manufacturer's instructions. The % cell death was analyzed and the IC50 calculated using Graph Pad Prism. Data are represented as Mean±SEM of three independent experiments performed in triplicates (*p<0.05).
(§10) To conduct a high through put screening for compounds that induce cell death in breast cancer, the FDA-approved Oncology Diversity set was obtained from NCI in 96 well plate format with each well containing 20 μl of 10 mM drug stock. All different cell lines were cultured either in regular 96 wells plate without scaffold (served as monolayer) and with FiSS (scaffold culture) in complete medium. For scaffold culture, 75% medium was carefully removed and replaced with 150 μl of fresh medium every alternate day. After five/six days of scaffold culture, cells were stained with NucBlue (Fisher Scientific) to check if tumoroids had formed. Drugs were added in triplicates with varying concentrations. The cells were incubated for 72 hrs in a humidified atmosphere under 5% CO2 at 37° C., then cell viability was measured using Presto-blue (Fisher Scientific).

MCF-7 tumoroids = assay: as above
Procedure: as §8, §9, §10

Sox2 in MCF-7 tumoroids = assay: Sox2 expression in tumoroids after drug treatment (western blot / RT-PCR); type: cell-based, human
Procedure: as §1
(§2) MCF-7 and MCF-7/dox cells were seeded as monolayer and 3D tumoroid cultures in 96 well plates. […] Collagenase was used to detach the cells from the plate/scaffold platform. The cell pellet was resuspended in RIPA buffer and vortexed for 30 min followed by centrifugation at 4° C. at 13000 rpm to collect the protein extract. Protein content was determined by using BCA method and followed for western blot procedure. Antibodies for Nanog, Oct 4a, Sox2, and GAPDH/HPRT were obtained from Cell Signaling.
(§3) To determine the effects of Actinomycin D on the Sox2 protein levels in both MCF-7 and MCF-7/dox cell lines, MCF7 wt and MCF7-dox cells were seeded as monolayer and 3D tumoroid cultures (both in controls and cobalt chloride (CoCl2) scaffold cultures) in 96 well plates. […] Collagenase was used to detach the cells from the plate/scaffold platform. The cell pellet was then dissolved in trizol and RNA was isolated. RT-PCR was performed using 2 step process namely 1) cDNA synthesis using DNAase-1 treated RNA and 2) PCR was performed using primers of the gene of interest. […] The decrease in Sox2 expression was 2 fold in both the cell lines tested when compared to the control untreated tumoroids (2.05 vs. 0.75 pixel density in MCF-7 and 1.05 vs. 0.5 pixel density in MCF-7/dox) (FIG. 8B). […] Actinomycin D targets and down-regulates the expression of Sox2 resulting in depletion of stem-like cell population, which hampers the breast cancer cell's ability to initiate spheroids.

[3] = tested on: Sox2 in MCF-7/dox tumoroids; assay: as above; type: cell-based, human
Procedure: as §1, §2, §3

[4] = read-out: MCF7-DOX (IC50), Table 1, validation of hits in breast cancer cell panel
[5] = read-out: MCF7-WT (IC50), Table 1, validation of hits in breast cancer cell panel

SMILES: Nc1nc2nc[nH]c2c(=S)[nH]1 [6-thioguanine]
rank as inhibitor of HT-29 cell viability (HT-29 cells): least potent inhibitors
rank as inhibitor of HT-29 cell viability (HT-29 tumoroids): least potent inhibitors

SMILES: Cc1c2oc3c(C)ccc(C(=O)N[C@@H]4C(=O)N[C@H](C(C)C)C(=O)N5CCC[C@H]5C(=O)N(C)CC(=O)N(C)[C@@H](C(C)C)C(=O)O[C@@H]4C)c3nc-2c(C(=O)N[C@@H]2C(=O)N[C@H](C(C)C)C(=O)N3CCC[C@H]3C(=O)N(C)CC(=O)N(C)[C@@H](C(C)C)C(=O)O[C@@H]2C)c(N)c1=O [Actinomycin D] (I: T[dV]P[Sar][NMeV] / II: T[dV]P[Sar][NMeV]; ester I:1-I:C, II:1-II:C; linker I:N-II:N via Actinocin(9to1))
IC50 [1]: 29 nM
IC50 (MCF-7/dox cells; MCF-7/dox monolayer, 48 hrs post-treatment, mean±SEM): 37 ± 21 nM
potency in high throughput screening (MCF-7/dox cells; MCF-7/dox monolayer): high potency
IC50 (MCF-7/dox cells; [4]): 50 ± 18 nM
IC50 (BT474 cells): 240 ± 30 nM
IC50 (MDA-MB-231 cells): 30 ± 10 nM
CD44highCD24low population [2]: decreased
IC50 (MCF-7 cells; MCF-7 monolayer, 48 hrs post-treatment, mean±SEM): 70 ± 6 nM
potency in high throughput screening (MCF-7 cells; MCF-7 monolayer): high potency
IC50 (MCF-7 cells; [5]): 50 ± 10 nM
IC50 (MCF-7/dox tumoroids; MCF-7/dox tumoroids on scaffold, hypoxic conditions (CoCl2)): 2240 ± 460 nM
IC50 (MCF-7/dox tumoroids; MCF-7/dox tumoroids on scaffold, normoxia, 6 days culture, 48 hrs treatment): 1660 ± 60 nM
IC50 (MCF-7 tumoroids; MCF-7 tumoroids on scaffold, hypoxic conditions (CoCl2)): 1040 ± 70 nM
IC50 (MCF-7 tumoroids; MCF-7 tumoroids on scaffold, normoxia, 6 days culture, 48 hrs treatment): 780 ± 250 nM
Sox2 expression (Sox2 in MCF-7 tumoroids; MCF-7 tumoroids treated 24 hrs at concentration based on IC50, untreated control 2.05): 0.75 pixel density
decrease in Sox2 expression (Sox2 in MCF-7 tumoroids; MCF-7 tumoroids vs control untreated tumoroids): 2 fold
Sox2 expression ([3]; MCF-7/dox tumoroids treated 24 hrs at concentration based on IC50, untreated control 1.05): 0.5 pixel density
decrease in Sox2 expression ([3]; MCF-7/dox tumoroids vs control untreated tumoroids): 2 fold

SMILES: CO[C@@]12[C@H](COC(N)=O)C3=C(C(=O)C(C)=C(N)C3=O)N1C[C@@H]1N[C@@H]12 [Mitomycin C]
potency in high throughput screening (MCF-7/dox cells; MCF-7/dox monolayer): high potency
IC50 (MCF-7/dox cells; [4]): 120 ± 10 nM
IC50 (BT474 cells): 30 ± 4 nM
IC50 (MDA-MB-231 cells): 30 ± 10 nM
potency in high throughput screening (MCF-7 cells; MCF-7 monolayer): high potency
IC50 (MCF-7 cells; [5]): 170 ± 60 nM

SMILES: N.N.[Cl][Pt][Cl] [cisplatin]
rank as inhibitor of HT-29 cell viability (HT-29 cells): least potent inhibitors
rank as inhibitor of HT-29 cell viability (HT-29 tumoroids): least potent inhibitors

SMILES: Nc1ccn([C@@H]2O[C@H](CO)[C@@H](O)[C@@H]2O)c(=O)n1 [cytarabine]
rank as inhibitor of HT-29 cell viability (HT-29 cells): least potent inhibitors
rank as inhibitor of HT-29 cell viability (HT-29 tumoroids): least potent inhibitors

SMILES: COc1cccc2c1C(=O)c1c(O)c3c(c(O)c1C2=O)C[C@@](O)(C(C)=O)C[C@@H]3O[C@H]1C[C@H](N)[C@H](O)[C@H](C)O1 [daunorubicin (hydrochloride)]
rank as inhibitor of HT-29 cell viability (HT-29 cells): most potent inhibitors
rank as inhibitor of HT-29 cell viability (HT-29 tumoroids): most potent inhibitors

IC50 (MCF-7/dox cells; Homo sapiens, MCF7-DOX, 48 h): 4400 ± 280 nM
IC50 (MCF-7 cells; Homo sapiens, MCF7, 48 h): 180 ± 8 nM
IC50 (MCF-7/dox tumoroids; Homo sapiens, MCF7-DOX): 23100 ± 5350 nM
IC50 (MCF-7 tumoroids; Homo sapiens, MCF7): 1310 ± 270 nM
SMILES: COc1cccc2c1C(=O)c1c(O)c3c(c(O)c1C2=O)C[C@@](O)(C(=O)CO)C[C@@H]3O[C@H]1C[C@H](N)[C@H](O)[C@H](C)O1 [doxorubicin]
fold more resistant than MCF-7 (MCF-7/dox cells; MCF-7/dox vs MCF-7 in monolayer): 24 fold

SMILES: COc1cccc2c1C(=O)c1c(O)c3c(c(O)c1C2=O)C[C@@](O)(C(=O)CO)C[C@@H]3O[C@H]1C[C@H](N)[C@@H](O)[C@H](C)O1 [epirubicin (hydrochloride)]
rank as inhibitor of HT-29 cell viability (HT-29 cells): most potent inhibitors
rank as inhibitor of HT-29 cell viability (HT-29 tumoroids): most potent inhibitors

— US20190033294A1, “METHODS OF SCREENING DRUGS FOR CANCER TREATMENT USING CELLS GROWN ON A FIBER-INSPIRED SMART SCAFFOLD” (UNIVERSITY OF SOUTH FLORIDA, priority 2016, published 2019)
